From patent US9181214B2 (RHIZEN PHARMACEUTICALS SA, priority 2011, dated 2015)

Biological target: T1, human GPR119 (Homo sapiens, UniProt Q8TDV5)
T1 construct: expressed in transfected cells; host or cells: HEK293 (transient transfection, Lipofectamine 2000)
T1 sequence (Q8TDV5 1-335): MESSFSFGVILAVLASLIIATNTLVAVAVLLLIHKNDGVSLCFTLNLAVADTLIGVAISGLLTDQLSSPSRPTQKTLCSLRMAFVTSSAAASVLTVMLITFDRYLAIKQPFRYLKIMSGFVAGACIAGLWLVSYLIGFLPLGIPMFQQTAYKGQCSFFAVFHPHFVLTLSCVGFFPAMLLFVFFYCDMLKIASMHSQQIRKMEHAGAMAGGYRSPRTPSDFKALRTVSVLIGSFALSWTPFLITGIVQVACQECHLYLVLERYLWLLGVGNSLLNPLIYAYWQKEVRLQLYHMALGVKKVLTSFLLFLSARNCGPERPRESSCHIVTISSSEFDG
Assay: In vitro cyclic AMP assay (Cisbio HTRF) in HEK293 cells transfected with human GPR119
Format: cell-based
Conditions: cAMP, Table I; for activation at 10 µM: 1 h, % Induction @ 10 μM; for EC50: Emax varies between 65 to 80%
Experimental: A. In Vitro Cyclic AMP Assay:
cAMP measurements were done using a Cisbio dynamic 2 HTRF kit (Cisbio, Bedford, Mass.) according to the manufacturer's protocol. Briefly, HEK293 cells (0.2×10^6/well) were plated in a 24 well plate and incubated overnight at 37° C. Cells were transfected with either empty vector DNA or human GPR119 expression plasmid DNA using Lipofectamine 2000 (Invitrogen). After 24 h, transfected cells were harvested, counted and plated at 1000 cells/5 ul in a black 384 welled small volume plate. Cells were treated with desired concentrations of compounds and incubated for 60 min at room temperature. Lysis buffer containing cAMP-d2 and cryptate conjugate were added and incubated for 1 h. HRTF ratio was measured on a microplate reader (BMG Labtech., Germany) at an excitation wavelength of 337 nm and emission wavelengths of 665 and 620 nm with an integration time of 400 μsec. Data were analyzed using Graphpad Prism (Graphpad software; San Diego Calif.) for EC50 determination.
The results are as given in Table I as % Induction@ 10 μM, Table II as % Induction@ 10 μM and EC 50 in nM

Row | SMILES | activation at 10 µM | EC50
1 | CCc1cnc(N2CCC(c3nc4cc(-c5ccc(S(C)(=O)=O)cc5F)ccc4[nH]3)CC2)nc1 [EXAMPLE-1, 2-[1-(5-Ethylpyrimidin-2-yl)piperidin-4-yl]-5-[2-fluoro-4-(methylsulfonyl)phenyl]-1H-benzo[d]imidazole] | 55.4% | 
2 | CC(C)(C)OC(=O)N1CCC(c2nc3cc(-c4ccc(S(C)(=O)=O)cc4F)ccc3[nH]2)CC1 [EXAMPLE-2, Tert-butyl 4-{5-[2-fluoro-4-(methylsulfonyl)phenyl]-1H-benzo[d]imidazol-2-yl}piperidine-1-carboxylate] | 35.8% | 
3 | CC(C)(C)OC(=O)N1CCC(c2nc3cc(-c4ccc(S(C)(=O)=O)cc4F)ccc3o2)CC1 [EXAMPLE-4, tert-butyl 4-{5-[2-fluoro-4-(methylsulfonyl)phenyl]benzo[d]oxazol-2-yl}piperidine-1-carboxylate] | 74.2% | 50 to 100 nM
4 | CC(C)(C)OC(=O)N1CCC(c2nc3cc(-c4ccc(S(C)(=O)=O)cc4F)cc(F)c3o2)CC1 [EXAMPLE-8, Tert-butyl 4-{7-fluoro-5-[2-fluoro-4-(methylsulfonyl)phenyl]benzo[d]oxazol-2-yl}piperidine-1-carboxylate] | 66.7% | 25 to 50 nM
5 | CC(C)(C)OC(=O)N1CCC(c2nc3cc(-c4ccc(S(C)(=O)=O)c(F)c4)ccc3o2)CC1 [EXAMPLE-10, Tert-butyl 4-{5-[3-fluoro-4-(methylsulfonyl)phenyl]benzo[d]oxazol-2-yl}piperidine-1-carboxylate] | 59.2% | 500 to 1000 nM
6 | CC(C)OC(=O)N1CCC(c2nc3cc(-c4ccc(-n5cnnn5)cc4F)ccc3o2)CC1 [EXAMPLE-14, Isopropyl 4-{5-[2-fluoro-4-(1H-tetrazol-1-yl)phenyl]benzo[d]oxazol-2-yl}piperidine-1-carboxylate] | 68.6% | 25 to 50 nM
7 | CC(C)(C)OC(=O)N1CCC(c2nc3cc(-c4ccc(C#N)c(F)c4)ccc3o2)CC1 [EXAMPLE-17, Tert-butyl 4-[5-(4-cyano-3-fluorophenyl)benzo[d]oxazol-2-yl]piperidine-1-carboxylate] | 41.5% | 
8 | CC(C)(C)OC(=O)N1CCC(c2nc3cc(-c4ccc(-c5nnn[nH]5)c(F)c4)ccc3o2)CC1 [EXAMPLE-19, Tert-butyl 4-{5-[3-fluoro-4-(1H-tetrazol-5-yl)phenyl]benzo[d]oxazol-2-yl}piperidine-1-carboxylate] | 37.2% | 
9 | CC(C)(C)OC(=O)N1CCC(c2nc3cc(-c4ccc(C(N)=O)c(Cl)c4)ccc3o2)CC1 [EXAMPLE-20, Tert-butyl 4-[5-(4-carbamoyl-3-chlorophenyl)benzo[d]oxazol-2-yl]piperidine-1-carboxylate] | 73.9% | 25 to 50 nM
10 | CCC(C)OC(=O)N1CCC(c2nc3cc(-c4ccc(-n5cnnn5)cc4F)ccc3o2)CC1 (stereo not drawn) [EXAMPLE-24, Sec-butyl 4-{5-[2-fluoro-4-(1H-tetrazol-1-yl)phenyl]benzo[d]oxazol-2-yl}piperidine-1-carboxylate] | 67.5% | ≤ 25 nM
11 | Fc1cc(-n2cnnn2)ccc1-c1ccc2oc(C3CCNCC3)nc2c1 [EXAMPLE-26, 5-[2-fluoro-4-(1H-tetrazol-1-yl)phenyl]-2-(piperidin-4-yl)benzo[d]oxazole] | 74% | 
12 | CC(C)OC(=O)N1CCC(c2nc3cc(-c4ccc(C(F)(F)F)cc4)ccc3o2)CC1 [EXAMPLE-27, Isopropyl 4-{5-[4-(trifluoromethyl)phenyl]benzo[d]oxazol-2-yl}piperidine-1-carboxylate] | 46.5% | 
13 | CC(C)OC(=O)N1CCC(c2nc3cc(-c4ccc(C(F)F)cc4)ccc3o2)CC1 [EXAMPLE-29, Isopropyl 4-{5-[4-(difluoromethyl)phenyl]benzo[d]oxazol-2-yl}piperidine-1-carboxylate] | 78.6% | 25 to 50 nM
14 | CC(C)OC(=O)N1CCC(c2nc3cc(-c4ccc(C(N)=O)c(F)c4)ccc3o2)CC1 [EXAMPLE-31, Isopropyl 4-[5-(4-carbamoyl-3-fluorohenyl)benzo[d]oxazol-2-yl]piperidine-1-carboxylate] | 80.4% | ≤ 25 nM

More lines, now with the values ahead:

Row | activation at 10 µM | EC50 | SMILES
15 | 35.4% |  | CCc1cnc(N2CCC(c3nc4cc(-c5ccc(S(C)(=O)=O)cc5F)ccc4o3)CC2)nc1 [EXAMPLE-3, 2-[1-(5-ethylpyrimidin-2-yl)piperidin-4-yl]-5-[2-fluoro-4-(methylsulfonyl)phenyl]benzo[d]oxazole]
16 | 41% |  | Cn1c(C2CCN(C(=O)OC(C)(C)C)CC2)nc2cc(-c3ccc(S(C)(=O)=O)cc3F)ccc21 [EXAMPLE-5, Tert-butyl 4-{5-[2-fluoro-4-(methylsulfonyl)phenyl]-1-methyl-1H-benzo[d]imidazol-2-yl}piperidine-1-carboxylate]
17 | 73.2% | 25 to 50 nM | CC(C)(C)OC(=O)N1CCC(c2nc3ccc(-c4ccc(S(C)(=O)=O)cc4F)cc3o2)CC1 [EXAMPLE-6, Tert-butyl 4-{6-[2-fluoro-4-(methylsulfonyl)phenyl]benzo[d]oxazol-2-yl}piperidine-1-carboxylate]
18 | 62.6% | 50 to 100 nM | CC(C)OC(=O)N1CCC(c2nc3cc(-c4ccc(S(C)(=O)=O)cc4F)ccc3o2)CC1 [EXAMPLE-7, Isopropyl 4-{5-[2-fluoro-4-(methylsulfonyl)phenyl]benzo[d]oxazol-2-yl}piperidine-1-carboxylate]
19 | 46.8% |  | CC(C)(C)OC(=O)N1CCC(c2nc3cc(-c4ccc(C#N)cc4)ccc3o2)CC1 [EXAMPLE-9, Tert-butyl 4-[5-(4-cyanophenyl)benzo[d]oxazol-2-yl]piperidine-1-carboxylate]
20 | 70.1% |  | CC(C)(C)OC(=O)N1CCC(c2nc3cc(-c4ccc(-n5cnnn5)cc4)ccc3o2)CC1 [EXAMPLE-11, Tert-butyl 4-{5-[4-(1H-tetrazol-1-yl)phenyl]benzo[d]oxazol-2-yl}piperidine-1-carboxylate]
21 | 68.2% | 100 to 500 nM | CC(C)(C)OC(=O)N1CCC(c2nc3cc(-c4ccc(C(F)(F)F)cc4)ccc3o2)CC1 [EXAMPLE-13, Tert-butyl 4-{5-[4-(trifluoromethyl)phenyl]benzo[d]oxazol-2-yl}piperidine-1-carboxylate]
22 | 77.7% | 100 to 500 nM | CC(C)(C)OC(=O)N1CCC(c2nc3cc(-c4ccc(-n5cnnn5)c(F)c4)ccc3o2)CC1 [EXAMPLE-15, Tert-butyl 4-{5-[3-fluoro-4-(1H-tetrazol-1-yl)phenyl]benzo[d]oxazol-2-yl}piperidine-1-carboxylate]
23 | 43.7% |  | CCc1cnc(N2CCC(c3nc4cc(-c5ccc(-n6cnnn6)cc5F)ccc4o3)CC2)nc1 [EXAMPLE-16, 2-[1-(5-ethylpyrimidin-2-yl)piperidin-4-yl]-5-[2-fluoro-4-(1H-tetrazol-1-yl)phenyl]benzo[d]oxazole]
24 | 36.4% |  | CC(C)OC(=O)N1CCC(c2nc3cc(-c4ccc(-n5cnnn5)c(F)c4)ccc3o2)CC1 [EXAMPLE-18, Isopropyl 4-{5-[3-fluoro-4-(1H-tetrazol-1-yl)phenyl]benzo[d]oxazol-2-yl}piperidine-1-carboxylate]
25 | 59% | 50 to 100 nM | CC(C)(C)OC(=O)N1CCC(c2nc3cc(-c4ccc(C(N)=O)c(F)c4)ccc3o2)CC1 [EXAMPLE-21, Tert-butyl 4-[5-(4-carbamoyl-3-fluorophenyl)benzo[d]oxazol-2-yl]piperidine-1-carboxylate]
26 | 64.5% |  | CC(C)Oc1ccc(-c2ccc3oc(C4CCN(C(=O)OC(C)(C)C)CC4)nc3c2)cc1F [EXAMPLE-22, Tert-butyl 4-[5-(3-fluoro-4-isopropoxyphenyl)benzo[d]oxazol-2-yl]piperidine-1-carboxylate]
27 | 69.6% | 25 to 50 nM | O=C(OC1CCC1)N1CCC(c2nc3cc(-c4ccc(-n5cnnn5)cc4F)ccc3o2)CC1 [EXAMPLE-23, Cyclobutyl 4-{5-[2-fluoro-4-(1H-tetrazol-1-yl)phenyl]benzo[d]oxazol-2-yl}piperidine-1-carboxylate]
28 | 63.4% |  | CCC(CC)OC(=O)N1CCC(c2nc3cc(-c4ccc(-n5cnnn5)cc4F)ccc3o2)CC1 [EXAMPLE-25, Pentan-3-yl 4-{5-[2-fluoro-4-(1H-tetrazol-1-yl)phenyl]benzo[d]oxazol-2-yl}piperidine-1-carboxylate]
29 | 45.4% |  | CC(C)OC(=O)N1CCC(c2nc3cc(-c4ccc(C=O)cc4)ccc3o2)CC1 [EXAMPLE-28, Isopropyl 4-[5-(4-formylphenyl)benzo[d]oxazol-2-yl]piperidine-1-carboxylate]
30 | 62.2% | 500 to 1000 nM | CC(C)OC(=O)N1CCC(c2nc3cc(-c4ccc(C(N)=O)c(Cl)c4)ccc3o2)CC1 [EXAMPLE-30, Isopropyl 4-[5-(4-carbamoyl-3-chlorophenyl)benzo[d]oxazol-2-yl]piperidine-1-carboxylate]
